Measured values as given in ChEMBL document CHEMBL2157960, “Novel cyanocombretastatins as potent tubulin polymerisation inhibitors” (Bioorg Med Chem Lett, 2012).

What was measured:
K562 = experiment: Antiproliferative activity against human K562 cells by MTT assay; assay type: functional, cell-based
MCF7 = experiment: Cytotoxicity against human MCF7 cells; assay type: functional, cell-based
MDA-MB-468 = experiment: Antiproliferative activity against human MDA-MB-468 cells expressing NQO1 by MTT assay; assay type: functional, cell-based
Tubulin = Tubulin (Sus scrofa, UniProt P02554+P02550); experiment: Inhibition of pig tubulin polymerization by spectrophotometry; assay type: protein assay

Structure (SMILES)	IC50 (K562) [nM]	IC50 (MDA-MB-468) [nM]	IC50 (Tubulin) [nM]	IC50 (MCF7) [nM]
COc1ccc(/C=C\c2cc(OC)c(OC)c(OC)c2)cc1F	7	–	–	–
COc1ccc(/C=C/c2cc(OC)c(OC)c(OC)c2)cc1B(O)O	–	–	–	470000
COc1ccc(/C=C/c2cc(OC)c(OC)c(OC)c2)cc1F	> 2500	–	–	–
COc1ccc(/C=C/c2cc(OC)c(OC)c(OC)c2)cc1Br	7830	–	–	–
COc1ccc(/C=C(/C#N)c2cc(OC)c(OC)c(OC)c2)cc1F	6.7	4.1	4200	–
C#Cc1cc(/C=C(\C#N)c2cc(OC)c(OC)c(OC)c2)ccc1OC	30.2	46.5	25300	–
COc1ccc(/C=C\c2cc(OC)c(OC)c(OC)c2)cc1O [COMBRETASTATIN A4]	2.3	3.1	–	–

More lines, main results first:

IC50 (K562) [nM]	IC50 (MDA-MB-468) [nM]	IC50 (Tubulin) [nM]	Structure (SMILES)	IC50 (MCF7) [nM]
18.7	20.3	18500	COc1ccc(/C=C(\C#N)c2cc(OC)c(OC)c(OC)c2)cc1F	–
49.5	70.6	35600	COc1ccc(/C=C(\C#N)c2cc(OC)c(OC)c(OC)c2)cc1Br	–
42.6	85.3	43800	COc1ccc(/C=C(\C#N)c2cc(OC)c(OC)c(OC)c2)cc1I	–
20.4	35.7	17400	COc1ccc(/C=C(\C#N)c2cc(OC)c(OC)c(OC)c2)cc1B(O)O	–
